{"source": "patent US10330673B2", "about": "“Fluorescent chemical sensor for biological amines” (The Curators of the University of Missouri, priority 2013, dated 2019)", "key": {"[1]": {"test": "Fluorescence titration of sensor with epinephrine", "type": "binding", "method": "(§1) Fluorescence spectra were recorded on a Shimadzu RF-5301 PC spectrofluorometer at 37° C. A 1 mg/mL stock solution of I-2 in DMSO was prepared. A stock solution of I-2 in buffer (1×10^−5 M, 25 mM HEPES, 50 mM Na2S2O3, pH=5.0) was prepared. Norepinephrine, dopamine, epinephrine, and glutamate stock solutions were prepared by separately dissolving the analytes at the concentration to be used in the titration with the buffered stock solution of I-2 (thus avoiding dilution of I-2 during the experiment). I-2 was titrated with aliquots of analyte solution. The sensor was excited at 488 nm with slit widths of 5 nm.\n(§2) Fluorescence spectra were recorded on a Shimadzu RF-5301 PC spectrofluorometer at 37° C. A separate 1 mg/mL stock solution of each coumarin-3-aldehyde derivative in DMSO was prepared. An aqueous stock solution of each derivative (10 μM) in buffer (25 mM HEPES, 50 mM Na2S2O3, pH=5.0) was prepared. Norepinephrine, dopamine, glutamate, and epinephrine stock solutions were prepared by separately dissolving the solid analytes at the concentration to be used in the titration with the buffered stock solutions described above and thus, avoiding dilution of the sensor during the experiment. The benzene-based NS521 derivatives were excited at 488 nm. The thiophene-based derivatives were excited at 515 nm."}, "[2]": {"test": "Fluorescence titration of sensor with norepinephrine", "type": "binding", "details": "for Ka: pH 5.0, 37° C.", "method": "as §1, §2"}, "[3]": {"test": "Fluorescence titration of sensor with dopamine", "type": "binding", "details": "for Ka: pH 5.0, 37° C.", "method": "as §1, §2"}, "[4]": {"test": "Fluorescence titration of sensor with glycine", "type": "binding", "details": "amine guest glycine"}, "[5]": {"test": "Fluorescence quantum yield of sensor bound to norepinephrine", "type": "physicochemical"}, "[6]": {"test_system": "NE-enriched chromaffin cells", "test": "Fixed-cell staining with I-2 and anti-PNMT antibody, NE-enriched cells", "type": "cell-based, bovine", "details": "1 μM, fixed in 4% paraformaldehyde, visualized at 525 nm", "source_text": "To further validate the selectivity of the inventive sensor, the inventive detection method is validated with an established procedure in which phenylethanolamine N-methyltransferase (PNMT) is stained with an antibody and visualized with a Cy3-conjugated secondary antibody. It has been shown that epinephrine-enriched cell populations gave the highest level of PNMT staining, while norepinephrine-enriched populations gave lower staining (ca. 20% of that with epinephrine-enriched cells). For this experiment, three populations of chromaffin cells (norepinephrine-enriched, epin ephrine-enriched, and mixed) were stained with Compound I-2 and fixed in 4% paraformaldehyde. The fixed cells were stained with the anti-PNMT and secondary antibodies.\nChromaffin cells were isolated from bovine adrenal glands as previously described. […]\nNE-enriched cells, EP-enriched cells and mixed cells stained with I-2 (1 μM) and plated on 0.0025% Poly (1-lysine) coated cover slips, after three washed with pre-warmed phosphate-buffered saline (pH=7.4, PBS), were fixed in 4% paraformaldehyde (Sigma, St. Louis, Mo., USA) in PBS for 60 min at room temperature (RT), followed by 6 min in methanol chilled to −20° C. […] After three washed in PBS, bound antibody was detected using Cy™3-conjugated AffiniPure Donkey Anti-Rabbit (1:150 dilution, Jackson ImmunoResearch Laboratories, Inc, Nest Grove, Pa., 19390). […]"}, "[7]": {"test": "Binding affinity toward free primary amines"}, "[8]": {"details": "Table 2, analyte norepinephrine, benzene-based compounds I, excited at 488 nm"}, "[9]": {"details": "Table 2, analyte dopamine, benzene-based compounds I, excited at 488 nm"}}, "data": [{"smiles": "CCN(CC)c1ccc2c(-c3ccc(OC)cc3)c(C=O)c(=O)oc2c1", "note": "[Compound I-2, 7-diethylamino-3-formyl-4-(4′-methoxyphenyl)coumarin]", "values": [{"measurement": "Ka", "setting": "[1]; amine guest epinephrine, fluorescence spectroscopy, λex = 488 nm, λem = 521 nm, pH 5.0, 37° C.", "result": 0, "unit": "M⁻¹"}, {"measurement": "interaction with secondary amines such as epinephrine", "setting": "[1]; in words", "result": "does not interact"}, {"measurement": "F.E.", "setting": "[2]; [8]", "result": 5.40}, {"measurement": "Ka", "setting": "[2]; [8]", "result": 77.76, "unit": "M⁻¹"}, {"measurement": "Ka", "setting": "[2]; amine guest norepinephrine, fluorescence spectroscopy, λex = 488 nm, λem = 521 nm", "result": 75, "unit": "M⁻¹"}, {"measurement": "Isat/Io (λex = 488 nm)", "setting": "[2]; amine guest norepinephrine, intensity at saturation from fit to binding isotherm", "result": 5.3}, {"measurement": "binding constants of catecholamines (norepinephrine, dopamine) relative to other alkyl amines such as glycine", "setting": "[2]; higher binding constants", "result": 10, "unit": "fold"}, {"measurement": "F.E.", "setting": "[3]; [9]", "result": 2.98}, {"measurement": "Ka", "setting": "[3]; [9]", "result": 112.10, "unit": "M⁻¹"}, {"measurement": "Ka", "setting": "[3]; amine guest dopamine, fluorescence spectroscopy, λex = 488 nm, λem = 521 nm", "result": 112, "unit": "M⁻¹"}, {"measurement": "Isat/Io (λex = 488 nm)", "setting": "[3]; amine guest dopamine, intensity at saturation from fit to binding isotherm", "result": 3.0}, {"measurement": "Ka", "setting": "[4]; fluorescence spectroscopy, λex = 488 nm, λem = 521 nm", "result": 8, "unit": "M⁻¹"}, {"measurement": "Isat/Io (λex = 488 nm)", "setting": "[4]; intensity at saturation from fit to binding isotherm", "result": 11.1}, {"measurement": "Quantum Yield (Φ)", "setting": "[5]", "result": 0.0033}, {"measurement": "staining of fixed cells by sensor", "setting": "[6]", "result": "stain brightly"}, {"measurement": "binding affinities toward free primary amines", "setting": "[7]", "result": "~10", "unit": "M⁻¹"}]}]}
